Data reported in patent publication US20210008175A1, “BACTERIOPHAGE LYSIN AND ANTIBIOTIC COMBINATIONS AGAINST GRAM POSITIVE BACTERIA” (priority 2012, published 2021).
Values after ≈ are worked out from the molar mass of the structure shown. Marks after values point to notes of the source that are not given here.

Key:
[1] = tested on: Staphylococcus aureus; experiment: MIC, broth microdilution (CLSI M07-A9); format: cell-based
[2] = tested on: Staphylococcus aureus (MRSA and MSSA strains); experiment: Time kill assay, single agents at 1×MIC (CLSI); format: cell-based

SMILES	MIC50/90 ([1]; MRSA (n = 45))	MIC50/90 [uM] ([1]; MRSA (n = 45)) [µM]	kill within 6 hours ([2]; 1×MIC) [log10]	relative effectiveness among antibiotic agents ([2]; MSSA strains)	MIC50/90 ([1]; DRSA (n = 8))	MIC50/90 [uM] ([1]; DRSA (n = 8)) [µM]	MIC50/90 ([1]; LRSA (n = 5))	MIC50/90 [uM] ([1]; LRSA (n = 5)) [µM]	MIC50/90 ([1]; MSSA (n-28))	MIC50/90 [uM] ([1]; MSSA (n-28)) [µM]	MIC50/90 ([1]; VISA (n = 10))	MIC50/90 [uM] ([1]; VISA (n = 10)) [µM]	MIC50/90 ([1]; VRSA (n = 14))	MIC50/90 [uM] ([1]; VRSA (n = 14)) [µM]
Cc1onc(-c2ccccc2)c1C(=O)N[C@@H]1C(=O)N2[C@@H]1SC(C)(C)[C@@H]2C(=O)O [Oxacillin, oxacillin]	>4*	>10.0	2	least effective	–	–	–	–	–	–	–	–	–	–
CC(=O)NC[C@H]1CN(c2ccc(N3CCOCC3)c(F)c2)C(=O)O1 [Linezolid]	2	5.7 (≈ 1.92 µg/mL)	–	–	2	5.7 (≈ 1.92 µg/mL)	>64	>183	2	5.7 (≈ 1.92 µg/mL)	2	5.7 (≈ 1.92 µg/mL)	2	5.7 (≈ 1.92 µg/mL)
